US20230082430A1 (C4 Therapeutics, Inc., priority 2019, published 2023)
Counter-ions that a name gives are not always drawn.

Each compound was assayed on NCIH929.1 cells (assay: Cell viability assay for Table 2 (CellTiter-Glo 2.0, ATP quantification, 96 hr)). Details: 96 h, NCIH929.1 cell viability, 96 hr, top concentration 1 μM, 14 points half log titration; read-out: IC50.
Type: cell-based
Source text: Cell Viability Assay for Table 2
CellTiter-Glo® 2.0 Assay was purchased from Promega (Madison, Wis., USA). NCIH929.1 cell line was purchased from ATCC (Manassas, Va., USA). Cell culture flasks and 384-well microplates were acquired from VWR (Radnor, Pa., USA).
In the case of CC(C)(C)OC(=O)N1CCN(Cc2ccc(Cc3ccc4c5c(cccc35)C(=O)N4C3CCC(=O)NC3=O)cc2)CC1 (centres unmarked) [Compound 107, tert-butyl 4-(4-((1-(2,6-dioxopiperidin-3-yl)-2-oxo-1,2-dihydrobenzo[cd]indol-6-yl)methyl)benzyl)piperazine-1-carboxylate], the IC50 is reported as < 1 nM. CC1(C(=O)N2CCC(C)(n3cc(Cc4ccc5c6c(cccc46)C(=O)N5C4CCC(=O)NC4=O)cn3)CC2)CCN(c2ccccn2)CC1 (centres unmarked) [Compound 271, 3-(6-((1-(4-methyl-1-(4-methyl-1-(pyridin-2-yl)piperidine-4-carbonyl)piperidin-4-yl)-1H-pyrazol-4-yl)methyl)-2-oxobenzo[cd]indol-1(2H)-yl)piperidine-2,6-dione] was tested, and the IC50 was < 1 nM. For CC(C)(C)OC(=O)N1CCC(n2cc(C(O)c3ccc4c5c(cccc35)C(=O)N4C3CCC(=O)NC3=O)cn2)CC1 (centres unmarked) [Compound 266, tert-butyl 4-[4-[[1-(2,6-dioxo-3-piperidyl)-2-oxo-benzo[cd]indol-6-yl]-hydroxy-methyl]pyrazol-1-yl]piperidine-1-carboxylate], the IC50 was < 1 nM. O=C1CCC(N2C(=O)c3cccc4c(Cc5ccc(CN6CCC(Cc7ccc(F)cc7)CC6)cc5)ccc2c34)C(=O)N1 (centres unmarked) [Compound 157, 3-[6-[[4-[[4-[(4-fluorophenyl)methyl]-1-piperidyl]methyl]phenyl]methyl]-2-oxo-benzo[cd]indol-1-yl]piperidine-2,6-dione] was tested, and the IC50 was < 1 nM. With O=C1CCC(N2C(=O)c3cccc4c(Cc5ccc(CN6CCN(S(=O)(=O)CC(F)(F)F)CC6)cc5)ccc2c34)C(=O)N1 (centres unmarked) [Compound 109, 3-(2-oxo-6-(4-((4-((2,2,2-trifIuoroethyl)sulfonyl)piperazin-1-yl)methyl)benzyl)benzo[cd]indol-1(2H)-yl)piperidine-2,6-dione] the IC50 was < 1 nM. For CC(C)(C)C(=O)N1CCC(n2cc(Cc3ccc4c5c(cccc35)C(=O)N4C3CCC(=O)NC3=O)cn2)CC1 (centres unmarked) [Compound 44, 3-(2-oxo-6-((1-(1-pivaloylpiperidin-4-yl)-1H-pyrazol-4-yl)methyl)benzo[cd]indol-1(2H)-yl)piperidine-2,6-dione], the IC50 was < 1 nM. For O=C1CCC(N2C(=O)c3cccc4c(Cc5ccc(CN6CCN(S(=O)(=O)CC(F)(F)F)CC6)cc5)ccc2c34)C(=O)N1 (single isomer, unassigned) [Compound 159, 3-(2-Oxo-6-{4-[4-(2,2,2-trifluoro-ethanesulfonyl)-piperazin-1-ylmethyl]-benzyl}-2H-benzo[cd]indol-1-yl)-piperidine-2,6-dione], the IC50 was < 1 nM. CC1(n2cc(Cc3ccc4c5c(cccc35)C(=O)N4C3CCC(=O)NC3=O)cn2)CCCCC1 (centres unmarked) [Compound 198, 3-[6-[[1-(1-methylcyclohexyl)pyrazol-4-yl]methyl]-2-oxo-benzo[cd]indol-1-yl]piperidine-2,6-dione] was tested, and the IC50 was < 1 nM. In the case of N#Cc1ccc(N2CCN(Cc3ccn(Cc4ccc5c6c(cccc46)C(=O)N5C4CCC(=O)NC4=O)n3)CC2)c(F)c1 (centres unmarked) [Compound 208, 4-(4-((1-((1-(2,6-dioxopiperidin-3-yl)-2-oxo-1,2-dihydrobenzo[cd]indol-6-yl)methyl)-1-H-pyrazol-3-yl)methyl)piperazin-1-yl)-3-fluorobenzonitrile], the IC50 is reported as < 1 nM. For CC(=O)N1CCN(Cc2ccc(Cc3ccc4c5c(cccc35)C(=O)N4C3CCC(=O)NC3=O)cc2)CC1 (centres unmarked) [Compound 108, 3-(6-(4-((4-acetylpiperazin-1-yl)methyl)benzyl)-2-oxobenzo[cd]indol-1(2H)-yl)piperidine-2,6-dione], the IC50 was < 1 nM. With N#Cc1ccc(N2CCN(Cc3cnn(Cc4ccc5c6c(cccc46)C(=O)N5C4CCC(=O)NC4=O)c3)CC2)c(F)c1 (single isomer, unassigned) [Compound 129, 4-[4-[[1-[[1-[2,6-dioxo-3-piperidyl]-2-oxo-benzo[cd]indol-6-yl]methyl]pyrazol-4-yl]methyl]piperazin-1-yl]-3-fluoro-benzonitrile] the IC50 was < 1 nM. CC1(n2cc(Cc3ccc4c5c(cccc35)C(=O)N4C3CCC(=O)NC3=O)cn2)CCN(C(=O)C2(C#N)CCCCC2)CC1 (centres unmarked) [Compound 72, 1-(4-(4-((1-(2,6-dioxopiperidin-3-yl)-2-oxo-1,2-dihydrobenzo[cd]indol-6-yl)methyl)-1H-pyrazol-1-yl)-4-methylpiperidine-1-carbonyl)cyclohexane-1-carbonitrile] was tested, and the IC50 was < 1 nM. With CC1(C(=O)N2CCC(Cc3ccc(Cc4ccc5c6c(cccc46)C(=O)N5C4CCC(=O)NC4=O)cc3)CC2)CCC1 (centres unmarked) [Compound 150, 3-(6-(4-((1-(1-methylcyclobutane-1-carbonyl)piperidin-4-yl)methyl)benzyl)-2-oxobenzo[cd]indol-1(2H)-yl)piperidine-2,6-dione] the IC50 was < 1 nM. With N#CC1(C(=O)N2CCC(n3cc(Cc4ccc5c6c(cccc46)C(=O)N5C4CCC(=O)NC4=O)cn3)CC2)CC1 (centres unmarked) [Compound 38, 1-(4-(4-((1-(2,6-dioxopiperidin-3-yl)-2-oxo-l,2-dihydrobenzo[cd]indol-6-yl)methyl)-1H-pyrazol-1-yl)piperidine-1-carbonyl)cyclopropane-1-carbonitrile] the IC50 was < 1 nM. With CC(c1cnn(C2CCN(C(=O)C3(C)CCC3)CC2)c1)c1ccc2c3c(cccc13)C(=O)N2C1CCC(=O)NC1=O (single isomer, unassigned) [Compound 148, 3-(6-(1-(1-(1-(1-methylcyclobutane-1-carbonyl)piperidin-4-yl)-1H-pyrazol-4-yl)ethyl)-2-oxobenzo[cd]indol-1(2H)-yl)piperidine-2,6-dione] the IC50 was < 1 nM. With O=C1CCC(N2C(=O)c3cccc4c(Cc5cnn(C6CCN(C(=O)C7(C(F)(F)F)CCC7)CC6)c5)ccc2c34)C(=O)N1 (centres unmarked) [Compound 51, 3-(2-oxo-6-((1-(1-(1-(trifluoromethyl)cyclobutane-1-carbonyl)piperidin-4-yl)-1H-pyrazol-4-yl)methyl)benzo[cd]indol-1(2H)-yl)piperidine-2,6-dione] the IC50 was < 1 nM. For O=C1CCC(N2C(=O)c3cccc4c(Cc5ccc(CC6CCN(Cc7ccccc7)CC6)cc5)ccc2c34)C(=O)N1 (centres unmarked) [Compound 152, 3-(6-(4-((1-benzylpiperidin-4-yl)methyl)benzyl)-2-oxobenzo[cd]indol-1(2H)-yl)piperidine-2,6-dione], the IC50 was < 1 nM. With O=C1CCC(N2C(=O)c3cccc4c(Cc5ccc(C(=O)N6CCN(c7ccccc7F)CC6)cc5)ccc2c34)C(=O)N1 (centres unmarked) [Compound 134, 3-[6-[[4-[4-(2-fluorophenyl)piperazine-1-carbonyl]phenyl]methyl]-2-oxo-benzo[cd]indol-1-yl]piperidine-2,6-dione] the IC50 was < 1 nM. With O=C1CCC(N2C(=O)c3cccc4c(Cc5cnn(C6CCN([C@H]7CCC8(CCC8)C7)CC6)c5)ccc2c34)C(=O)N1 (some centres unmarked) [Compound 242] the IC50 was < 1 nM. For CC(C)(C)OC(=O)N1CCC(n2cc(C(=O)c3ccc4c5c(cccc35)C(=O)N4C3CCC(=O)NC3=O)cn2)CC1 (centres unmarked) [Compound 143, tert-butyl 4-(4-(1-(2,6-dioxopiperidin-3-yl)-2-oxo-1,2-dihydrobenzo[cd]indole-6-carbonyl)-1H-pyrazol-1-yl)piperidine-1-carboxylate], the IC50 was < 999 nM. For O=C1CCC(N2C(=O)c3cccc4c(Cc5ccc(CN6CCC7(CCCO7)CC6)cc5)ccc2c34)C(=O)N1 (centres unmarked) [Compound 215, 3-(6-(4-((1-oxa-8-azaspiro[4.5]decan-8-yl)methyl)benzyl)-2-oxobenzo[cd]indol-1(2H)-yl)piperidine-2,6-dione], the IC50 was < 1 nM. For CC1(C(=O)N2CCC(C)(n3cc(Cc4ccc5c6c(cccc46)C(=O)N5C4CCC(=O)NC4=O)cn3)CC2)CCC1 (centres unmarked) [Compound 92, 3-(6-((1-(4-methyl-1-(1-methylcyclobutane-1-carbonyl)piperidin-4-yl)-1H-pyrazol-4-yl)methyl)-2-oxobenzo[cd]indol-1(2H)-yl)piperidine-2,6-dione], the IC50 was < 1 nM. O=C1CCC(N2C(=O)c3cccc4c(Cc5ccc(CN6CC7(COC7)C6)cc5)ccc2c34)C(=O)N1 (centres unmarked) [Compound 230, 3-(6-(4-((2-oxa-6-azaspiro[3.3)heptan-6-yl)methyl)benzyl)-2-oxobenzo[cd]indol-1(2H)-yl)piperidine-2,6-dione] was tested, and the IC50 was < 1 nM. In the case of CC1(C(=O)N2CCC(n3cc(Cc4ccc5c6c(cccc46)C(=O)N5C4CCC(=O)NC4=O)nn3)CC2)CCC1 (centres unmarked) [Compound 192, 3-[6-[[1-[1-(1-methylcyclobutanecarbonyl)-4-piperidyl]triazol-4-yl]methyl]-2-oxo-benzo[cd]indol-1-yl]piperidine-2,6-dione], the IC50 is reported as < 1 nM. With C#CCNc1ccc2c3c(cccc13)C(=O)N2C1CCC(=O)NC1=O (centres unmarked) [Compound 136, 3-[2-oxo-6-(prop-2-ynylamino)benzo[cd]indol-1-yl]piperidine-2,6-dione] the IC50 was > 999 nM. In the case of CC(C)(CO)C(=O)N1CCC(C)(n2cc(Cc3ccc4c5c(cccc35)C(=O)N4C3CCC(=O)NC3=O)cn2)CC1 (centres unmarked) [Compound 98, 3-(6-((1-(1-(3-hydroxy-2,2-dimethylpropanoyl)-4-methylpiperidin-4-yl)-1H-pyrazol-4-yl)methyl)-2-oxobenzo[cd]indol-1(2H)-yl)piperidine-2,6-dione], the IC50 is reported as < 1 nM. In the case of Nc1ccc2c3c(cccc13)C(=O)N2C1CCC(=O)NC1=O (centres unmarked) [Compound 144, 3-(6-Amino-2-oxo-2H-benzo[cd]indol-1-yl)-piperidine-2,6-dione hydrochloride], the IC50 is reported as < 999 nM.

Same assay, conditions: NCIH929.1 cell viability, 96 hr, top concentration 1 μM, 14 points half log titration; read-out: IC50
CC(C1CC1)N1CCC(n2cc(Cc3ccc4c5c(cccc35)C(=O)N4C3CCC(=O)NC3=O)cn2)CC1 (single isomer, unassigned) [Compound 283, 3-(6-((1-(1-(1-cyclopropylethyl)piperidin-4-yl)-1H-pyrazol-4-yl)methyl)-2-oxobenzo[cd]indol-1(2H)-yl)piperidine-2,6-dione] was tested, and the IC50 was < 1 nM. For CC1(C(=O)N2CCC(n3cc(Cc4ccc5c6c(cccc46)C(=O)N5C4CCC(=O)NC4=O)cn3)CC2)CCC1 (single isomer, unassigned) [Compound 68, 3-[6-[[1-[1-(1-methylcyclobutanecarbonyl)-4-piperidyl]pyrazol-4-yl]methyl]-2-oxo-benzo[cd]indol-1-yl]piperidine-2,6-dione], the IC50 was < 1 nM.
